# Paper PMC12314576, “The Actin‐Binding Prolyl‐Isomerase Par17 Sustains Its Substrate Selectivity by Interdomain Allostery” (Proteins, 2025)
# Starred links: 1 amine or outer side, 2 acyl side, 3 side chain; linkers in the order of their positions; H or OH if unused. Residues, ends and D or L forms follow the SMILES beside them. *: point of attachment. pNA = O=[N+]([O-])c1ccc(N*)cc1; Suc = O=C(CCC(=O)[*:2])[*:1]
# Assays:
# Par17 [1] = target: T1, Par17 (Homo sapiens, UniProt Q9Y237); assay: Protease-coupled isomerase assay (PPIase assay) with Par17; assay type: biochemical; conditions: for k = kobserved - kthermic, Par17: α-chymotrypsin 35 μM, PBS pH 6.8, 10°C, substrate 75 μM, PPIase 2 μM, absorbance 390 nm, mean ± SD
# T1 construct: full‐length Par17 and the N‐terminus of Par17; GST-His6 (PreScission site) (N, cleaved yes); Gly-Pro remnant of the PreScission site (Gly stands at position 1 in place of Met1); made in house; host or cells: E. coli BL21 (DE3) T1r
# Experimental: (§1) To determine the catalytic efficiency and substrate specificity of Par14 and Par17, we performed a protease‐coupled assay. In this assay, the trans form of a para‐nitroaniline (pNA) tagged model substrate is cleaved by chymotrypsin, and the resulting change in absorption at 390 nm due to free pNA is measured. When the model substrate is added to the protease‐containing buffer, all trans‐Xaa‐Pro isomers are immediately cleaved by chymotrypsin. Therefore, the extent of the first signal burst observed in the absorption spectrum correlates with the amount of trans isomers of the model substrate formed during the experimental dead time. The remaining cis‐Xaa substrates now start to isomerize by thermal (in the absence of PPIase) or catalytic reaction (in the presence of PPIase). The newly formed trans‐Xaa substrates are immediately cleaved, and isomerization can thus be monitored over time (Figure 2). Eighteen different substrate peptides with varying amino acids at the Xaa position (Suc‐Ala‐Xaa‐Pro‐Phe‐pNa) were measured to determine the isomerase activity and substrate selectivity of Par14 (Par17Δ1–25), Par17, and the catalytic domain (Par17Δ1–60) (Table S1). The catalytic efficiency is obtained from the observed isomerization curves by calculating the difference between the rate constant in the presence of enzyme and the rate constant obtained from thermal isomerization.
# (§2) We determined the isomerase activity using the PPIase assay described by. The lyophilized peptides were dissolved in an adequate volume of 0.5 mM‐LiCl/TFE buffer to obtain a 15 mM stock solution. To achieve a stable cis/trans ratio the mixture was incubated overnight at 4°C. The next day a stock solution of 350 μM α‐chymotrypsin in PBS was incubated on ice for at least 20 min. For measurements without PPIase PBS buffer (pH 6.8) was mixed with α‐chymotrypsin to a final concentration of 35 μM in 1 mL. A baseline was recorded for 5 min (Cary 100Bio UV/Vis spectrophotometer, Varian/Agilent, Santa Clara, US, λ: 390 nm, bandwidth: 1.0 nm, average time between measurements: 0.5 s, temperature: 10°C). After 5 min the substrate peptide was added to a final concentration of 75 μM in 1 mL [59]. The solution was mixed by inverting the cuvette three times and the reaction was recorded for 15 min. Measurements in the presence of PPIase were performed in the same way, except that before the baseline measurement, the appropriate isomerase was added in a final concentration of 2 μM in 1 mL in addition to PBS and α‐chymotrypsin.
# (§3) For the data analysis, a mean value of the baseline was subtracted (average of the first 200 data points). The measured values were normalized according to the respective maximum of the measurement. To determine the rate constant, the program graph pad was used, and non‐linear curve fitting was applied for each measurement (exponential, one‐phase association). (1) Y=Y0+Plateau−Y0∙1−e^−K∙x
# (§4) where x is the time (min), Y is the absorbance, Y 0 is the absorbance when x = 0, Plateau is the Y value at infinite times, K is the rate constant (min^−1).
# (§5) The K cat/K M value was calculated according to Equation (2): (2) kcat/KM=kobs−ktherm/PPIase where k cat/K M is the catalytic efficiency (M^−1 s^−1), k obs, rate constant of the observed reaction (s^−1), k therm is the rate constant of the thermic reaction (s^−1), and [PPIase] is the concentration of PPIase used in the assay (M).
# (§6) The obtained data are fitted to Equation (2) using a pseudo first‐order assumption. This is the case, if k obs values behave linearly with rising PPIase concentrations.
# Par14 (Par17Δ1-25) = target: T2, Par14 (Par17Δ1-25) (Homo sapiens, UniProt Q9Y237); assay: Protease-coupled isomerase assay (PPIase assay) with Par14; assay type: biochemical; conditions: α-chymotrypsin 35 μM, PBS pH 6.8, 10°C, substrate 75 μM, PPIase 2 μM, absorbance 390 nm; mean ± SD
# T2 construct: Comparison of spectra of full‐length parvulin proteins and PPIase domain; GST-His6 (PreScission site) (N, cleaved yes); made in house; host or cells: E. coli BL21 (DE3) T1r
# Experimental: as §1, §2, §3, §4, §5, §6
# [2] = target: T3, PPIase domain (Par17Δ1-60) (Homo sapiens, UniProt Q9Y237); assay: Protease-coupled isomerase assay (PPIase assay) with the catalytic domain; assay type: biochemical; conditions: α-chymotrypsin 35 μM, PBS pH 6.8, 10°C, substrate 75 μM, PPIase 2 μM, absorbance 390 nm; mean ± SD
# T3 construct: GST-His6 (PreScission site) (N, cleaved yes); made in house; host or cells: E. coli BL21 (DE3) T1r
# Experimental: as §1, §2, §3, §4, §5, §6
# Par17 [3] = target: T1, Par17; assay: NMR titration of substrate peptides to 15N-labeled full-length Par17; assay type: binding; conditions: 300 μM Par17, KPi pH 6.7, 20°C
# Experimental: The amide signals were assigned and combined chemical shift changes between the signals of free and substrate‐bound isomers were calculated.
# (§7) For NMR measurements, purified and concentrated proteins in salt‐free buffers were mixed with 10% D2O and 1 μL DSS standard. Spectra were measured on an ultra shield 700‐NMR (Bruker, Billerica, US) with a triple resonance cryoprobe (700 MHz). For recording and processing of data, the software Topspin 3.5 was used. Analysis of spectra was carried out using Cara analysis software 2.3.1 (Rochus L.J. Keller) and/or CcpNmr Analysis 2.3.1 (Department of Molecular and Cell Biology, University of Leicester, UK).
# Titration of substrate peptides to ^ 15 N‐labeled full‐length Par17 and the N‐terminus of Par17: The following substrate peptides were diluted in salt‐free 50 mM KPi buffer pH 6.7 to a concentration of 15 mM (Suc: Succinyl, pNA: para‐Nitroanilin):
# They were added stepwise to 200 μL of the labeled parvulins (300 μM in 50 mM KPi buffer pH 6.7). Spectra were recorded with the pulse program Best‐TROSY at 20°C. Combined chemical shifts were calculated as described. Microscopic dissociation constant K D was fitted with the following equation (assuming a 1:1 binding model): (4) ∆δ=∆δmax·P+x+KD−P+x+KD^2−4·x·P/2·P
# where ∆δmax is the amplitude, P is the protein concentration, X is the concentration of the peptide.
# Differences in chemical shift changes could be measured up to 0.001 ppm (error in peak picking). Changes were interpreted as significant if Δ > 0.004 ppm and when appearing consecutively in a linear sequence element.
# The microscopic K D describes the binding affinity of the ligand to a single side of an amino acid.
# Par17Δ61–156 = assay: NMR titration of substrate peptides to 15N-labeled N-terminus of Par17; assay type: binding, human; conditions: 15N-BEST-TROSY-HSQC, 50 mM KPi pH 6.7, 20°C; protein 0.3 mM, substrate 3 mM
# From the text: To elucidate the physical nature of the chemical shift changes in Par17 upon the addition of selected substrate peptides, we investigated whether the isolated N‐terminus of Par17 (Par17Δ61–156) is also capable of binding various substrates on its own. […] This indicates the existence of an independent binding epitope located within the N‐terminus.
# In the next step, we studied if this binding epitope is selectively interacting with peptides carrying Xaa‐Pro motifs. We already knew from former studies that model peptides carrying alanine instead of proline in the Xaa position are capable of binding to the hydrophobic catalytic center without being catalyzed.
# as §7, with “UK). […]” for “UK).”
# They were added stepwise to 200 μL of the labeled parvulins (300 μM in 50 mM KPi buffer pH 6.7). Spectra were recorded with the pulse program Best‐TROSY at 20°C. Combined chemical shifts were calculated as described. […]
# T3 sequence (Q9Y237 36-131, stated change not applied): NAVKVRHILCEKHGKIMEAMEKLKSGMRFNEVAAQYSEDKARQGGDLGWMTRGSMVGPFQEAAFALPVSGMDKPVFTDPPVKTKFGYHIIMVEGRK
# T2 sequence (Q9Y237 whole entry, stated change not applied, the tested form may be a part): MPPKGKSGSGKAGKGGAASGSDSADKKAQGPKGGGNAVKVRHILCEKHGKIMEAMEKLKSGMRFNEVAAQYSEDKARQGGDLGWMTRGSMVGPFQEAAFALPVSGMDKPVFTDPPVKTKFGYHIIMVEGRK
# T1 sequence (Q9Y237 1-156 isoform Q9Y237-2): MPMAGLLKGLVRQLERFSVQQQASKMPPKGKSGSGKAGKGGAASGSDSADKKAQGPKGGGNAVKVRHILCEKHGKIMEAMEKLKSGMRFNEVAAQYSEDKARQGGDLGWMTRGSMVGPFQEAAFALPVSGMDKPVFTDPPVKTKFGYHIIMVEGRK
Molecule,"k = kobserved - kthermic, Par17 (Par17 [1])","k = kobserved - kthermic, Par14 (Par17Δ1-25) (Par14 (Par17Δ1-25))","k = kobserved - kthermic, PPIase domain (Par17Δ1-60) [2]","Combined chemical shift perturbation of full length Par17, 113G (Par17 [3]; peptide 0,35 mM)","Combined chemical shift perturbation of full length Par17, 116V (Par17 [3]; peptide 0,35 mM)","Combined chemical shift perturbation of full length Par17, 119F (Par17 [3]; peptide 0,35 mM)","Combined chemical shift perturbation of full length Par17, 113G (Par17 [3]; peptide 3 mM)","Combined chemical shift perturbation of full length Par17, 115M (Par17 [3]; peptide 3 mM)","Combined chemical shift perturbation of full length Par17, 116V (Par17 [3]; peptide 3 mM)","Combined chemical shift perturbation of full length Par17, 119F (Par17 [3]; peptide 3 mM)","Combined chemical shift perturbation of full length Par17, 113G (Par17 [3]; peptide 5 mM)","Combined chemical shift perturbation of full length Par17, 115M (Par17 [3]; peptide 5 mM)","Combined chemical shift perturbation of full length Par17, 116V (Par17 [3]; peptide 5 mM)","Combined chemical shift perturbation of full length Par17, 119F (Par17 [3]; peptide 5 mM)","Combined chemical shift perturbation of full length Par17, 113G (Par17 [3]; peptide 1,5 mM)","Combined chemical shift perturbation of full length Par17, 115M (Par17 [3]; peptide 1,5 mM)","Combined chemical shift perturbation of full length Par17, 116V (Par17 [3]; peptide 1,5 mM)","Combined chemical shift perturbation of full length Par17, 119F (Par17 [3]; peptide 1,5 mM)",other results
"C[C@H](NC(=O)CCC(=O)O)C(=O)NCC(=O)N1CCC[C@H]1C(=O)N[C@@H](Cc1ccccc1)C(=O)Nc1ccc([N+](=O)[O-])cc1 [Gly, Suc‐Ala‐Gly‐Pro‐Phe‐pNa] (Suc-AGPF-pNA)",<0.01 ± 0.029 min⁻¹,0.390 ± 0.457 min⁻¹,0.275 ± 0.214 min⁻¹,"0,014 ppm","0,038 ppm","0,012 ppm","0,116 ppm","0,06 ppm","0,302 ppm","0,084 ppm","0,157 ppm","0,081 ppm","0,412 ppm","0,113 ppm","0,066 ppm","0,035 ppm","0,173 ppm","0,05 ppm",
"C[C@H](NC(=O)CCC(=O)O)C(=O)N[C@@H](CCCCN)C(=O)N1CCC[C@H]1C(=O)N[C@@H](Cc1ccccc1)C(=O)Nc1ccc([N+](=O)[O-])cc1 [Lys, Suc‐Ala‐Lys‐Pro‐Phe‐pNa]",0.33 ± 0.012 min⁻¹,0.412 ± 0.014 min⁻¹,0.442 ± 0.006 min⁻¹,,,,,"0,04495973 ppm","0,18551846 ppm","0,05880948 ppm",,"0,06478417 ppm",,"0,08126177 ppm",,,,,"k cat/K M of Par17, times higher than for Leu‐Pro, Gln‐Pro or His‐Pro peptides (Par17 [1]; ratio of k cat/K M values): approximately 10 times; Combined chemical shift perturbation of full length Par17, 115M (Par17 [3]; peptide 0,2 mM): 0,00414271 ppm; Combined chemical shift perturbation of full length Par17, 119F (Par17 [3]; peptide 0,2 mM): 0,00604921 ppm; Combined chemical shift perturbation of full length Par17, 115M (Par17 [3]; peptide 1 mM): 0,01818939 ppm; Combined chemical shift perturbation of full length Par17, 116V (Par17 [3]; peptide 1 mM): 0,06817833 ppm; Combined chemical shift perturbation of full length Par17, 119F (Par17 [3]; peptide 1 mM): 0,02459781 ppm; Combined chemical shift perturbation of full length Par17, 115M (Par17 [3]; peptide 2 mM): 0,03362789 ppm; Combined chemical shift perturbation of full length Par17, 116V (Par17 [3]; peptide 2 mM): 0,13037308 ppm; Combined chemical shift perturbation of full length Par17, 119F (Par17 [3]; peptide 2 mM): 0,04192915 ppm; Combined chemical shift perturbation of full length Par17, 115M (Par17 [3]; peptide 4 mM): 0,05828389 ppm; Combined chemical shift perturbation of full length Par17, 116V (Par17 [3]; peptide 4 mM): 0,23776807 ppm; Combined chemical shift perturbation of full length Par17, 119F (Par17 [3]; peptide 4 mM): 0,07526515 ppm"
"CC(C)[C@H](NC(=O)[C@H](C)NC(=O)CCC(=O)O)C(=O)N1CCC[C@H]1C(=O)N[C@@H](Cc1ccccc1)C(=O)Nc1ccc([N+](=O)[O-])cc1 [Val, Suc‐Ala‐Val‐Pro‐Phe‐pNa] (Suc-AVPF-pNA)",0.011 ± 0.005 min⁻¹,0.408 ± 0.432 min⁻¹,0.289 ± 0.166 min⁻¹,"0,024 ppm","0,049 ppm","0,022 ppm","0,157 ppm","0,084 ppm","0,326 ppm","0,125 ppm","0,221 ppm","0,11 ppm","0,454 ppm","0,167 ppm","0,099 ppm","0,055 ppm","0,201 ppm","0,08 ppm","Combined chemical shift perturbation of full length Par17, 115M (Par17 [3]; peptide 0,35 mM): 0,015 ppm"
Suc–Ala–Glu–Ala–Phe–pNA [proline-free model peptide carrying alanine instead of proline],,,,,,,,,,,,,,,,,,,binding to the N-terminal epitope of Par17 (Par17Δ61–156): interact with the N‐terminal epitope
